These results are taken from patent US20230148602A1, “BENZAMIDE COMPOUND AND HERBICIDE” (Nippon Soda Co., Ltd., priority 2020, published 2023).

Structures are written as SMILES.

In data set [1] the test system is Alopecurus myosuroides. As to the kind of experiment: Test Example 1 foliage treatment, weed killing rate. The format is in vivo. Particulars: foliar, 504 h, 250 g/ha active ingredient, foliage spray, after 3 weeks. As for the experimental part: (§1) POA allylphenyl ether (4.1 parts by weight), POE-POP glycol (1 part by weight), POE sorbitan laurate (0.8 parts by weight), glycerin (2.6 parts by weight), dimethylformamide (65.9 parts by weight), N-methylpyrrolidone (5.1 parts by weight), cyclohexanone (15.4 parts by weight), and aromatic hydrocarbons (5.1 parts by weight) were mixed to obtain an emulsion.
(§2) The compound of the present invention (4 mg) was dissolved in this emulsion (100 μt) to obtain a test emulsion. POA means “polyoxyalkylene”, POE means “polyoxyethylene”, and POP means “polyoxypropylene”.
(§3) In a 150 cm^2 pot filled with soil, seeds of Digitaria ciliaris, Amaranthus retroflexus, Alopecurus myosuroides and Matricaria chamomilla were respectively sown and covered lightly with soil. Thereafter, they were grown in a greenhouse. When each plant grew to a plant height of 2 to 5 cm, the above test emulsion was diluted with water and sprayed on the foliage with a small sprayer at a spray water volume of 250 L per hectare (the amount of active ingredient of 250 g per hectare).
(§4) After 3 weeks, the above ground weights of weeds in the untreated and treated areas were measured for each plant, and the weed killing rate was calculated by the following calculation formula.
(§5) Weed killing rate (%)=[{(above ground weight of weeds in untreated area)−(above ground weight of weeds in treated area)}/(above ground weight of weeds in untreated area)]×100

A further data set has as its system Digitaria ciliaris. The description is as above. The format is in vivo. As to conditions: foliar, 504 h, 250 g/ha active ingredient, foliage spray, after 3 weeks. As for the experimental part:
as §1, §2, §3, §4, §5

A further data set relates to Amaranthus retroflexus. The data set is described as above. The format is in vivo. Particulars: foliar, 504 h, 250 g/ha active ingredient, foliage spray, after 3 weeks. As for the experimental part:
as §1, §2, §3, §4, §5

In a further data set the test system is Matricaria chamomilla. The description is as above. The format is in vivo. Particulars: foliar, 504 h, 250 g/ha active ingredient, foliage spray, after 3 weeks. As for the experimental part: as §1, §2, §3, §4, §5
Another data set deals with Zea mays. As to the kind of experiment: Test Example 2 foliage treatment, weed killing rate on maize (phytotoxicity). The format is in vivo. As to conditions: foliage spray, after 4 weeks, crop (phytotoxicity to maize). As for the experimental part:
(§6) In a 150 cm^2 pot filled with soil, seeds of Alopecurus myosuroides, Setaria faberi and Zea mays were sown and covered lightly with soil. Thereafter, they were grown in a greenhouse. When Alopecurus myosuroides and Setaria faberi grew to a plant height of 2 to 5 cm and Zea mays grew to 30 to 35 cm, the test emulsion obtained in Test Example 1 was diluted with water and sprayed on the foliage with a small sprayer at a spray water volume of 250 L per hectare (the amount of active ingredient of 250 g, 63 g, or 16 g per hectare). Also for the compound represented by the formula (B) (Compound No. B-1), a test emulsion was obtained in the same manner as in Test Example 1, and Test Example 2 was carried out using the emulsion. After 4 weeks, the above ground weights of weeds in the untreated and treated areas were measured for each plant, and the weed killing rate was calculated by the following calculation formula. Weed killing rate (%)=[{(above ground weight of weeds in untreated area)−(above ground weight of weeds in treated area)}/(above ground weight of weeds in untreated area)]×100

Data set [2] deals with Alopecurus myosuroides. Put plainly: Test Example 2 foliage treatment, weed killing rate. The format is in vivo. Particulars: foliage spray, after 4 weeks. As for the experimental part:
as §6

Another data set concerns Setaria faberi. The description is as above. The format is in vivo. As to conditions: foliage spray, after 4 weeks. As for the experimental part:
as §6

In the case of `Cc1c(NC(=O)C(=O)N(C)C)c(Br)cc(F)c1C(=O)Nc1nnnn1C` [A-1, N^1-(6-bromo-4-fluoro-2-methyl-3-((1-methyl-1H-tetrazol-5-yl)carbamoyl)phenyl)-N^2,N^2-dimethyloxalamide], the pest or weed control at 250 g/ha in the data set with Alopecurus myosuroides [1], with Digitaria ciliaris, with Amaranthus retroflexus and in the data set on Matricaria chamomilla was 100% throughout.

Compound `CCN(C)C(=O)C(=O)Nc1c(Br)cc(F)c(C(=O)Nc2nnnn2C)c1C` [A-2] gave a melting point of 191 to 194 °C. In the data set on Alopecurus myosuroides [1], this compound displayed a pest or weed control at 250 g/ha of 100%. In the data set on Digitaria ciliaris, this compound displayed a pest or weed control at 250 g/ha of 100%. Besides, the pest or weed control at 250 g/ha in the data set on Amaranthus retroflexus was 100%. The pest or weed control at 250 g/ha in the data set on Matricaria chamomilla worked out at 100%.

As for `Cc1c(NC(=O)C(=O)N(C)CC(F)(F)F)c(Br)cc(F)c1C(=O)Nc1nnnn1C` [A-3], the “Weed killing rate Zea mays” value with Zea mays (16 g/ha active ingredient) came to 0%; with Zea mays (63 g/ha active ingredient) it was 0%; in the data set with Zea mays (250 g/ha active ingredient), 30%. The pest or weed control at 250 g/ha in the data set with Alopecurus myosuroides [1], with Digitaria ciliaris, in the data set on Amaranthus retroflexus and in the data set on Matricaria chamomilla was 100% in each case. Besides, the entries for the “Weed killing rate Alopecurus myosuroides” value with Alopecurus myosuroides [2] (16 g/ha active ingredient), in the data set on Alopecurus myosuroides [2] (63 g/ha active ingredient) and in the data set with Alopecurus myosuroides [2] (250 g/ha active ingredient) were 80%, 100% and 100%, respectively. The figures for the “Weed killing rate Setaria faberi” value with Setaria faberi (16 g/ha active ingredient), in the data set with Setaria faberi (63 g/ha active ingredient) and in the data set on Setaria faberi (250 g/ha active ingredient) were 50%, 100% and 100%, respectively.

As to `COCCN(C)C(=O)C(=O)Nc1c(Br)cc(F)c(C(=O)Nc2nnnn2C)c1C` [A-5], the melting point is 179 to 181 °C. Further, the pest or weed control at 250 g/ha in the data set with Alopecurus myosuroides [1] was determined as 70%. The same compound yielded a pest or weed control at 250 g/ha in the data set on Digitaria ciliaris of 80%. In addition, the pest or weed control at 250 g/ha with Amaranthus retroflexus was found to be 80%.

`Cc1c(NC(=O)C(=O)N(C)C2CC2)c(Br)cc(F)c1C(=O)Nc1nnnn1C` [A-6]: the melting point is 188 to 192 °C. This compound also came in with a pest or weed control at 250 g/ha in the data set with Alopecurus myosuroides [1] of 90%. Moreover, the pest or weed control at 250 g/ha in the data set with Digitaria ciliaris is 80%. The compound also gave a pest or weed control at 250 g/ha in the data set with Amaranthus retroflexus of 100%. The compound further had a pest or weed control at 250 g/ha with Matricaria chamomilla of 100%.

As for `Cc1c(NC(=O)C(=O)N2CCOCC2)c(Br)cc(F)c1C(=O)Nc1nnnn1C` [A-7], the melting point fell in the range of 244 to 246 °C. In addition, the pest or weed control at 250 g/ha with Amaranthus retroflexus came to 70%.

Regarding `CCN(C)C(=O)C(=O)Nc1c(Br)cc(F)c(C(=O)Nc2nnnn2C)c1Cl` [A-8], the melting point was in the range of 233 to 235 °C. For the same compound, the pest or weed control at 250 g/ha in the data set with Alopecurus myosuroides [1] was 100%. Also, in the data set with Digitaria ciliaris, the pest or weed control at 250 g/ha was 70%. The compound also displayed a pest or weed control at 250 g/ha with Amaranthus retroflexus of 100%. In the data set with Matricaria chamomilla, the pest or weed control at 250 g/ha is 100%.

Take `CCN(CC)C(=O)C(=O)Nc1c(Br)cc(F)c(C(=O)Nc2nnnn2C)c1Cl` [A-9]: the melting point was in the range of 220 to 223 °C. The compound further yielded a pest or weed control at 250 g/ha in the data set with Alopecurus myosuroides [1] of 100%. Further, the pest or weed control at 250 g/ha with Digitaria ciliaris is 70%. This compound also yielded a pest or weed control at 250 g/ha in the data set on Amaranthus retroflexus of 80%. The pest or weed control at 250 g/ha in the data set with Matricaria chamomilla turned out to be 100%.

As for `CN(CC(F)(F)F)C(=O)C(=O)Nc1c(Br)cc(F)c(C(=O)Nc2nnnn2C)c1Cl` [A-10], the melting point was in the range of 243 to 246 °C. In the data set on Alopecurus myosuroides [1], the pest or weed control at 250 g/ha stood at 70%. The compound further yielded a pest or weed control at 250 g/ha in the data set on Amaranthus retroflexus of 100%. Further, the pest or weed control at 250 g/ha in the data set with Matricaria chamomilla was determined as 100%.

As for `Cc1c(C(=O)Nc2nnnn2C)ccc(Br)c1NC(=O)C(=O)N(C)CC(F)(F)F` [A-11], the melting point lay in the range of 204 to 206 °C. The same compound had a pest or weed control at 250 g/ha with Alopecurus myosuroides [1] of 100%. In the data set on Digitaria ciliaris, the pest or weed control at 250 g/ha is 100%. This compound also gave a pest or weed control at 250 g/ha in the data set with Amaranthus retroflexus of 100%. Moreover, in the data set on Matricaria chamomilla, the pest or weed control at 250 g/ha was 100%.

The compound `Cc1c(NC(=O)C(=O)N(C)CC(F)(F)F)cccc1C(=O)Nc1nnnn1C` [A-12] returned a melting point of 104 to 107 °C.

Regarding `CCN(CC)C(=O)C(=O)Nc1c(Br)cc(F)c(C(=O)Nc2nnnn2C)c1C` [A-13], the melting point was in the range of 198 to 201 °C. In the data set on Alopecurus myosuroides [1], the pest or weed control at 250 g/ha amounted to 100%. This compound also gave a pest or weed control at 250 g/ha in the data set with Digitaria ciliaris of 90%. For the same compound, in the data set on Amaranthus retroflexus, the pest or weed control at 250 g/ha amounted to 100%. The compound also yielded a pest or weed control at 250 g/ha in the data set on Matricaria chamomilla of 100%.

The compound `Cc1c(NC(=O)C(=O)N2CCCC2)c(Br)cc(F)c1C(=O)Nc1nnnn1C` [A-14] displayed a melting point of 275 to 278 °C. Further, the pest or weed control at 250 g/ha in the data set with Amaranthus retroflexus is 80%.

`CCOC(=O)C(=O)Nc1c(Br)cc(F)c(C(=O)Nc2nnnn2C)c1C` [A-15] came in with a melting point of 154 to 157 °C.

The compound `CC(=O)C(=O)Nc1c(Br)cc(F)c(C(=O)Nc2nnnn2C)c1C` [A-16] gave a melting point of 221 to 223 °C. In the data set with Amaranthus retroflexus, this compound had a pest or weed control at 250 g/ha of 70%. Also, the pest or weed control at 250 g/ha in the data set on Matricaria chamomilla amounted to 90%.

`CON(C)C(=O)C(=O)Nc1c(Br)cc(F)c(C(=O)Nc2nnnn2C)c1C` [A-17] registered a melting point of 212 to 215 °C.

As for `Cc1c(C(=O)Nc2nnnn2C)ccc(C(F)(F)F)c1NC(=O)C(=O)N(C)CC(F)(F)F` [A-18], the melting point fell in the range of 190 to 193 °C.

Consider `Cc1c(NC(=O)N(C)CC(F)(F)F)c(Br)cc(F)c1C(=O)Nc1nnnn1C` [B-1, reference compound], for which the “Weed killing rate Zea mays” value is listed as 20% with Zea mays (16 g/ha active ingredient), 30% with Zea mays (63 g/ha active ingredient) and 90% in the data set on Zea mays (250 g/ha active ingredient). The “Weed killing rate Alopecurus myosuroides” value in the data set on Alopecurus myosuroides [2] (16 g/ha active ingredient) came to 40%; in the data set with Alopecurus myosuroides [2] (63 g/ha active ingredient), 50%; in the data set on Alopecurus myosuroides [2] (250 g/ha active ingredient), 90%. Besides, the “Weed killing rate Setaria faberi” value in the data set on Setaria faberi (16 g/ha active ingredient) came to 20%; in the data set on Setaria faberi (63 g/ha active ingredient) it was 50%; in the data set with Setaria faberi (250 g/ha active ingredient), 100%.

Usually pest or weed control stands for how far the test organism was held down. The term melting point denotes the temperature, or range, at which the solid turns liquid.
